The term Ki denotes the dissociation constant of the complex between target and ligand, obtained from inhibition or displacement.

One assay addresses T1, rat CB2 (Rattus norvegicus, UniProt Q9QZN9).
T1 sequence (Q9QZN9 1-360): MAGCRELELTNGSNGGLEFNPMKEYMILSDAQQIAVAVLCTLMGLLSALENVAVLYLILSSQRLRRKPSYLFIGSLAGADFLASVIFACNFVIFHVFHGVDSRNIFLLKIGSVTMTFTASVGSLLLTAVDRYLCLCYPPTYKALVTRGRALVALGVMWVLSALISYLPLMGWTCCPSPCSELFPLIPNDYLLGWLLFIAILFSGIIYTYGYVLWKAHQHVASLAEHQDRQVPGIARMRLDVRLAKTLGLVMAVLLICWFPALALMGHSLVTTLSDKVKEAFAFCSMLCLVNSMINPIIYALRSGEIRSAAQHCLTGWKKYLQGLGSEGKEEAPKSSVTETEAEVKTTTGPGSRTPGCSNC
In words: rat CB2 radioligand binding assay ([3H]CP-55,940 competition). Details: expressed in transfected cells; host or cells: HEK293.

Another assay concerns the target T2, human CB2 receptors (Homo sapiens, UniProt P34972).
T2 construct: expressed in transfected cells; host or cells: HEK293
In words: human CB2 radioligand binding assay ([3H]CP-55,940 competition).

The mark [1] stands for this setting: HEK293 membranes, 0.5 nM [3H]CP-55,940, read-out: rat CB2 (Ki).
Setting [2] is: HEK293 membranes, 0.5 nM [3H]CP-55,940, read-out: human CB2 (Ki).

Molecules are shown by their SMILES. Like-named read-outs stand apart in the source and are kept apart here.

T2 sequence (P34972 whole entry): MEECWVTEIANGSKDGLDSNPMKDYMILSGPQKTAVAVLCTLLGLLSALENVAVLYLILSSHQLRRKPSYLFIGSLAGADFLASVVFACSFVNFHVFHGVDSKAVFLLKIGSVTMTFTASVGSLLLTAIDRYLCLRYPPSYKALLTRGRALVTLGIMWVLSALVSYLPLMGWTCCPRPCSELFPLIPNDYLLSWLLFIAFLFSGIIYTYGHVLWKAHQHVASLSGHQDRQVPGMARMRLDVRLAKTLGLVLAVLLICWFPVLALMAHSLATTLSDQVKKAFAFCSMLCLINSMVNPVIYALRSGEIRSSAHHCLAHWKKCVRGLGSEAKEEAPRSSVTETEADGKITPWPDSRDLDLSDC

In the case of `CCCCc1cn(C(C)(C)C)s/c1=N\C(=O)[C@]1(C)CC[C@H](NC(=O)N2CC(F)(F)C2)C1(C)C` [Example 261, N-[(1S,3R)-3-({[(5Z)-4-butyl-2-tert-butylisothiazol-5(2H)-ylidene]amino}carbonyl)-2,2,3-trimethylcyclopentyl]-3,3-difluoroazetidine-1-carboxamide], the inhibition constant Ki on rat CB2 is 0.044 µM; at human CB2 receptors it was 0.054 µM.
In the same order, the values of `CCCCc1cn(C(C)(C)C)s/c1=N\C(=O)c1cc(Cl)ccc1OCC(F)(F)F` [Example 47, N-[(5Z)-4-butyl-2-tert-butylisothiazol-5(2H)-ylidene]-5-chloro-2-(2,2,2-trifluoroethoxy)benzamide] are 0.0018 µM and 0.0073 µM.
Take `CCCCc1cn(C(C)(C)C)s/c1=N\C(=O)[C@@]1(C)CC[C@@H](C(=O)NCCC)C1(C)C` [Example 219, (1S,3R)—N^1-[(5Z)-4-butyl-2-tert-butylisothiazol-5(2H)-ylidene]-1,2,2-trimethyl-N^3-propylcyclopentane-1,3-dicarboxamide]: the Ki came out at 0.159 µM at rat CB2 (setting [1]) and 0.204 µM at human CB2 receptors (setting [2]).
`CCCCc1cn(C(C)(C)C)s/c1=N\C(=O)[C@]1(C)CC[C@H](NC(=O)N2CCOCC2)C1(C)C` [Example 250, N-[(1S,3R)-3-({[(5Z)-4-butyl-2-tert-butylisothiazol-5(2H)-ylidene]amino}carbonyl)-2,2,3-trimethylcyclopentyl]morpholine-4-carboxamide]: the figures for the inhibition constant (Ki) at rat CB2 and at human CB2 receptors were 0.075 µM and 0.048 µM, respectively.
In the same order, the values of `CCCCc1cn(C(C)(C)C)s/c1=N\C(=O)[C@H]1CC[C@@](C)(C2=NCCO2)C1(C)C` [Example 232, (1S,3R)—N-[(5Z)-4-butyl-2-tert-butylisothiazol-5(2H)-ylidene]-3-(4,5-dihydro-1,3-oxazol-2-yl)-2,2,3-trimethylcyclopentanecarboxamide] are 0.018 µM and 0.045 µM.
In the same order, the values of `CCCCc1cn(C(C)(C)C)s/c1=N\C(=O)c1cc(OC(F)(F)F)ccc1OC` [Example 63, N-[(5Z)-4-butyl-2-tert-butylisothiazol-5(2H)-ylidene]-2-methoxy-5-(trifluoromethoxy)benzamide] are 0.0034 µM and 0.033 µM.
For the compound `CCCCc1cn(C(C)(C)C)s/c1=N\C(=O)[C@]1(C)CC[C@H](C(=O)NCc2ccccn2)C1(C)C` [Example 234, (1R,3S)—N^1-[(5Z)-4-butyl-2-tert-butylisothiazol-5(2H)-ylidene]-1,2,2-trimethyl-N^3-(pyridin-2-ylmethyl)cyclopentane-1,3-dicarboxamide], the inhibitory constant (Ki) on rat CB2 (setting [1]) came out at 0.142 µM; at human CB2 receptors (setting [2]) it was 0.32 µM.
Turning to `CCCCc1cn(C(C)(C)C)s/c1=N\C(=O)c1cc(C(F)(F)F)ccc1OCc1cnccn1` [Example 198, N-[(5Z)-4-butyl-2-tert-butylisothiazol-5(2H)-ylidene]-2-(pyrazin-2-ylmethoxy)-5-(trifluoromethyl)benzamide], the Ki at rat CB2 (setting [1]) amounted to 0.111 µM; on human CB2 receptors (setting [2]), 0.25 µM.
`CCCCc1cn(C(C)(C)C)s/c1=N\C(=O)c1cc(I)ccc1OC` [Example 61, N-[(5Z)-4-butyl-2-tert-butylisothiazol-5(2H)-ylidene]-5-iodo-2-methoxybenzamide]: the results for the inhibition constant Ki at rat CB2 and on human CB2 receptors were 0.00051 µM and 0.0076 µM, respectively.
In the same order, the values of `CCCCc1cn(C(C)(C)C)s/c1=N\C(=O)[C@]1(C)CC[C@H](NC(=O)c2ccccc2)C1(C)C` [Example 251, N-[(1S,3R)-3-({[(5Z)-4-butyl-2-tert-butylisothiazol-5(2H)-ylidene]amino}carbonyl)-2,2,3-trimethylcyclopentyl]benzamide] are 0.06 µM and 0.06 µM.
Consider `COC(=O)CCCc1cn(C(C)(C)C)s/c1=N\C(=O)c1cc(Cl)ccc1OC` [Example 45, Methyl 4-{(5Z)-2-tert-butyl-5-[(5-chloro-2-methoxybenzoyl)imino]-2,5-dihydroisothiazol-4-yl}butanoate], for which the values for the Ki at rat CB2 and on human CB2 receptors (setting [2]) were 0.0056 µM and 0.12 µM, respectively.
For the compound `CCCCc1cn(C2(C)CCC2)s/c1=N\C(=O)c1cc(Cl)ccc1OC` [Example 5, N-[(5Z)-4-butyl-2-(1-methylcyclobutyl)isothiazol-5(2H)-ylidene]-5-chloro-2-methoxybenzamide], the Ki at rat CB2 is 0.0022 µM; on human CB2 receptors, 0.03 µM.
Turning to `CCCCc1cn(C2CCC2)s/c1=N\C(=O)c1cc(Cl)ccc1OC` [Example 3, N-[(5Z)-4-butyl-2-cyclobutylisothiazol-5(2H)-ylidene]-5-chloro-2-methoxybenzamide], the Ki on rat CB2 stood at 0.011 µM; on human CB2 receptors (setting [2]), 0.41 µM.
Turning to `COc1ccc(Cl)cc1C(=O)/N=c1\sn(C(C)(C)C)c(C)c1NC(=O)OC(C)(C)C` [Example 162, Tert-butyl [(5Z)-2-tert-butyl-5-{[(5-chloro-2-methoxyphenyl)carbonyl]imino}-3-methyl-2,5-dihydroisothiazol-4-yl]carbamate], the Ki was 0.047 µM on rat CB2 and 0.12 µM on human CB2 receptors (setting [2]).
`CCCCc1cn(C(C)(C)C)s/c1=N\S(=O)(=O)c1cc(Cl)ccc1OC` [Example 115, N-[(5Z)-4-butyl-2-tert-butylisothiazol-5(2H)-ylidene]-5-chloro-2-methoxybenzenesulfonamide]: the figures for the Ki on rat CB2 and at human CB2 receptors were 0.033 µM and 0.053 µM, respectively.
With `CCCCc1cn(C(C)(C)C)s/c1=N\C(=O)[C@]1(C)CC[C@H](C(=O)N(C)OC)C1(C)C` [Example 241, (1R,3S)—N^1-[(5Z)-4-butyl-2-tert-butylisothiazol-5(2H)-ylidene]-N^3-methoxy-N^3,1,2,2-tetramethylcyclopentane-1,3-dicarboxamide], the Ki amounted to 0.024 µM on rat CB2 and 0.02 µM on human CB2 receptors.
Take `CCCCc1cn(C(C)(C)C)s/c1=N\C(=O)c1cc(C(F)(F)F)ccc1OC[C@@H]1CCC(=O)N1` [Example 194, N-[(5Z)-4-butyl-2-tert-butylisothiazol-5(2H)-ylidene]-2-{[(2S)-5-oxopyrrolidin-2-yl]methoxy}-5-(trifluoromethyl)benz amide]: the Ki at rat CB2 came out at 0.041 µM; on human CB2 receptors (setting [2]), 0.17 µM.
As for `CCCCc1cn(C(C)(C)C)s/c1=N\C(=O)[C@@]1(C)CC[C@@H](C(=O)NC2CCC2)C1(C)C` [Example 225, (1S,3R)—N^1-[(5Z)-4-butyl-2-tert-butylisothiazol-5(2H)-ylidene]-N^3-cyclobutyl-1,2,2-trimethylcyclopentane-1,3-dicarboxamide], the inhibitory constant (Ki) on rat CB2 (setting [1]) was 0.423 µM; at human CB2 receptors (setting [2]), 0.29 µM.
On to `CCCCc1cn(C(C)(C)C)s/c1=N\C(=O)c1cc(C(F)(F)F)ccc1OCC(C)(C)O` [Example 262, N-[(5Z)-4-butyl-2-tert-butylisothiazol-5(2H)-ylidene]-2-(2-hydroxy-2-methylpropoxy)-5-(trifluoromethyl)benzamide], for which the Ki on rat CB2 amounted to 0.0044 µM; on human CB2 receptors, 0.006 µM.
In the same order, the values of `COc1ccc(Cl)cc1C(=O)/N=c1\sn(C(C)(C)C)cc1CN=[N+]=[N-]` [Example 32, N-[(5Z)-4-(azidomethyl)-2-tert-butylisothiazol-5(2H)-ylidene]-5-chloro-2-methoxybenzamide] are 0.02 µM and 0.17 µM.
In the same order, the values of `CCCCc1cn(C(C)(C)C)s/c1=N\C(=O)c1cc(C#N)ccc1OCC(F)(F)F` [Example 130, N-[(5Z)-4-butyl-2-tert-butylisothiazol-5(2H)-ylidene]-5-cyano-2-(2,2,2-trifluoroethoxy)benzamide] are 0.0028 µM and 0.081 µM.
As for `CCCCc1cn(C(C)(C)C)s/c1=N\C(=O)[C@]1(C)CC[C@H](C(=O)NCC(F)(F)F)C1(C)C` [Example 238, (1R,3S)—N^1-[(5Z)-4-butyl-2-tert-butylisothiazol-5(2H)-ylidene]-1,2,2-trimethyl-N^3-(2,2,2-trifluoroethyl)cyclopentane-1,3-dicarboxamide], the figures for the inhibition constant Ki on rat CB2 and on human CB2 receptors were 0.014 µM and 0.023 µM, respectively.
Consider `CCCCc1cn(C(C)(C)C)s/c1=N\C(=O)[C@@]1(C)CC[C@@H](NC(N)=O)C1(C)C` [Example 253, (1S,3R)-3-[(aminocarbonyl)amino]-N-[(5Z)-4-butyl-2-tert-butylisothiazol-5(2H)-ylidene]-1,2,2-trimethylcyclopentanecarboxamide], for which the inhibition constant (Ki) on rat CB2 came to 0.045 µM; on human CB2 receptors, 0.16 µM.
On to `CCCCc1cn(C(C)(C)C)s/c1=N\C(=O)[C@]1(C)CC[C@H](C(=O)NC2CC2)C1(C)C` [Example 208, (1R,3S)—N^1-[(5Z)-4-butyl-2-tert-butylisothiazol-5(2H)-ylidene]-N^3-cyclopropyl-1,2,2-trimethylcyclopentane-1,3-dicarboxamide], for which the values for the Ki at rat CB2 and at human CB2 receptors (setting [2]) were 0.011 µM and 0.2 µM, respectively.
In the case of `CCC1CC1c1cn(C(C)(C)C)s/c1=N\C(=O)c1cc(Cl)ccc1OC` (stereo not shown) [Example 27, N-[(5Z)-2-tert-butyl-4-(2-ethylcyclopropyl)isothiazol-5(2H)-ylidene]-5-chloro-2-methoxybenzamide], the inhibitory constant (Ki) at rat CB2 is 0.023 µM; on human CB2 receptors (setting [2]), 0.24 µM.
With `CCCCc1cn(C(C)(C)C)s/c1=N\C(=O)[C@@H]1CC[C@](C)(NC(=O)NC)C1(C)C` [Example 247, (1R,3S)—N-[(5Z)-4-butyl-2-tert-butylisothiazol-5(2H)-ylidene]-2,2,3-trimethyl-3-{[(methylamino)carbonyl]amino}cyclopentanecarboxamide], the values for the inhibitory constant (Ki) at rat CB2 and at human CB2 receptors were 0.04 µM and 0.041 µM, respectively.

The values above are taken from US8501794B2, “Compounds as cannabinoid receptor ligands” (priority 2007, dated 2013).
